biological target: T1, Steryl-sulfatase (Homo sapiens, UniProt P08842); test: Inhibition of human steroid sulfatase compared to EMATE
T1 sequence (P08842 whole entry): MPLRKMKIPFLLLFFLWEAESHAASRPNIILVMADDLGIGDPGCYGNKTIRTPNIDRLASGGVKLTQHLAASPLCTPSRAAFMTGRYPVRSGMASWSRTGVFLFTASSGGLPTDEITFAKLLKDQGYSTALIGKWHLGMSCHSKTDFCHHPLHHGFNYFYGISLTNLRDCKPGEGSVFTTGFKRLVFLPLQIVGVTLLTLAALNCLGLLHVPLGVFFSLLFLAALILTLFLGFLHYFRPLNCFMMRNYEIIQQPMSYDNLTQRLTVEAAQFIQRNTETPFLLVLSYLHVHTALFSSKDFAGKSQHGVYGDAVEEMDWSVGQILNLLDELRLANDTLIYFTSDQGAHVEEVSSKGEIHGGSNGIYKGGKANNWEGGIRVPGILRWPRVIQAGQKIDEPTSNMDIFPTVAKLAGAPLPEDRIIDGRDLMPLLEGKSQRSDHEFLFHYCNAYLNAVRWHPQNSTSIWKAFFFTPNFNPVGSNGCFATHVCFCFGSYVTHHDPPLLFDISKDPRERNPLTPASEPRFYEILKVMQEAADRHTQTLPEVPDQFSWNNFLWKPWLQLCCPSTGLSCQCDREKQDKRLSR

Structure (SMILES)	IC50
COc1cccc(C(=O)c2ccc(OS(N)(=O)=O)cc2)c1	5.2 µM
C[C@]12CC[C@@H]3c4ccc(OS(N)(=O)=O)cc4CC[C@H]3[C@@H]1CCC2=O [EMATE]	0.056 µM
COc1ccc(C(=O)c2cccc(OS(N)(=O)=O)c2)cc1	6.9 µM
COc1cccc(C(=O)c2cccc(OS(N)(=O)=O)c2)c1	7.1 µM
NS(=O)(=O)Oc1cccc(C(=O)c2ccccc2)c1	5.7 µM
NS(=O)(=O)Oc1cccc(C(=O)c2cccc(O)c2)c1	6.9 µM

Now from value to molecule:

IC50	Structure (SMILES)
0.19 µM	NS(=O)(=O)Oc1ccc(C(=O)c2ccc(OS(N)(=O)=O)cc2)cc1
5.1 µM	NS(=O)(=O)Oc1ccc(C(=O)c2ccccc2)cc1
0.78 µM	NS(=O)(=O)Oc1ccc(C(=O)c2cccc(OS(N)(=O)=O)c2)cc1
4.6 µM	NS(=O)(=O)Oc1ccc(C(=O)c2ccccc2O)cc1
4.8 µM	COc1ccccc1C(=O)c1ccc(OS(N)(=O)=O)cc1
3.2 µM	NS(=O)(=O)Oc1cccc(C(=O)c2cccc(OS(N)(=O)=O)c2)c1
5 µM	NS(=O)(=O)Oc1cccc(C(=O)c2ccc(O)cc2)c1

Source: ChEMBL document CHEMBL1136026, “4,4'-Benzophenone-O,O'-disulfamate: a potent inhibitor of steroid sulfatase” (Bioorg Med Chem Lett, 2002)
